What all share (type): functional
Assay [1] concerns Plasmodium falciparum. Description: Antiparasitic activity against intraerythrocytic form of chloroquine/pyrimethamine-resistant Plasmodium falciparum K1 infected in human RBC assessed as growth inhibition at 0.8 ug/ml preincubated for 48 hrs followed by [3H]-hypoxanthine addition measured after 24 hrs by liquid scintillation counting analysis relative to control. Conditions: read-out: GI.

Assay [2] deals with Trypanosoma brucei rhodesiense. Description: Antiparasitic activity against Trypanosoma brucei rhodesiense STIB 900 trypomastigote bloodstream form assessed as growth inhibition at 4.8 ug/ml after 72 hrs by resazurin dye-based fluorometric analysis relative to control. The settings on record: STIB 900, 72 h, read-out: GI.
In assay [3] the test system is Leishmania donovani. Description: Antiparasitic activity against Leishmania donovani MHOM-ET-67/L82 axenic amastigotes assessed as growth inhibition at 0.8 ug/ml after 72 hrs by resazurin dye-based fluorometric analysis relative to control. The settings on record: MHOM-ET-67/L82, 72 h, read-out: GI. (In general: Alamar Blue is a resazurin reagent that responds to reducing activity.)

In assay [4] the test system is Trypanosoma cruzi. Description: Antiparasitic activity against Trypanosoma cruzi Tulahuen C4 intracellular amastigotes infected in rat L6 cells assessed as growth inhibition at 4.8 ug/ml after 96 hrs by CPRG/Nonidet reagent based photometric analysis relative to control. The settings on record: Tulahuen C4, L6, 96 h, read-out: GI.
The subject of assay [5] is Leishmania donovani. The experiment in a line: Antiparasitic activity against Leishmania donovani MHOM-ET-67/L82 axenic amastigotes assessed as growth inhibition at 4.8 ug/ml after 72 hrs by resazurin dye-based fluorometric analysis relative to control. Conditions: MHOM-ET-67/L82, 72 h, read-out: GI.
Assay [6] concerns Trypanosoma brucei rhodesiense. The experiment in a line: Antiparasitic activity against Trypanosoma brucei rhodesiense STIB 900 trypomastigote bloodstream form assessed as growth inhibition at 0.8 ug/ml after 72 hrs by resazurin dye-based fluorometric analysis relative to control. The settings on record: STIB 900, 72 h, read-out: GI.
In assay [7] the test system is Trypanosoma cruzi. The experiment in a line: Antiparasitic activity against Trypanosoma cruzi Tulahuen C4 intracellular amastigotes infected in rat L6 cells assessed as growth inhibition at 0.8 ug/ml after 96 hrs by CPRG/Nonidet reagent based photometric analysis relative to control. The settings on record: Tulahuen C4, L6, 96 h, read-out: GI.
Assay [8] relates to Plasmodium falciparum. The experiment in a line: Antiparasitic activity against intraerythrocytic form of chloroquine/pyrimethamine-resistant Plasmodium falciparum K1 infected in human RBC assessed as growth inhibition at 4.8 ug/ml preincubated for 48 hrs followed by [3H]-hypoxanthine addition measured after 24 hrs by liquid scintillation counting analysis relative to control. The settings on record: read-out: GI.

As to `O=S(=O)(c1ccc(Br)cc1)N1CCc2ccccc21`, the inhibition of growth at 0.8 µg/mL in the assay with Plasmodium falciparum [1] is 9.8%; in the assay with Leishmania donovani [3], 17.9%; in assay [6] it was 5.3%; in the assay with Trypanosoma cruzi [7], 4.2%. The inhibition of growth at 4.8 µg/mL in assay [2] was determined as 0%; in the assay with Trypanosoma cruzi [4], 28.1%; with Leishmania donovani [5] it was 77.7%; with Plasmodium falciparum [8], 63.5%.
Turning to `CC(=O)c1ccc(S(=O)(=O)n2ccc3ccccc32)cc1`, the inhibition of growth at 0.8 µg/mL with Plasmodium falciparum [1] was 12.2%; in the assay with Leishmania donovani [3] it was 0%; in assay [6], 2.2%; with Trypanosoma cruzi [7], 0%. Further, the inhibition of growth at 4.8 µg/mL in assay [2] was 0%; with Trypanosoma cruzi [4], 0%; with Leishmania donovani [5] it was 25.9%; in the assay on Plasmodium falciparum [8] it was 40.8%.
Turning to `CC(C)(C)c1ccc(S(=O)(=O)N2CCc3ccccc32)cc1`, the inhibition of growth at 0.8 µg/mL in the assay with Plasmodium falciparum [1] amounted to 29.5%; in the assay on Leishmania donovani [3], 49.4%; in assay [6], 1.9%; in the assay with Trypanosoma cruzi [7], 5.2%. For the same compound, the inhibition of growth at 4.8 µg/mL in assay [2] came to 5.8%; with Trypanosoma cruzi [4], 54.1%; with Leishmania donovani [5] it was 100%; in the assay on Plasmodium falciparum [8], 99.1%.
Consider `Cc1ccc(S(=O)(=O)N2CCc3ccccc32)cc1`, for which the inhibition of growth at 0.8 µg/mL was 0% with Plasmodium falciparum [1], 8.1% in the assay on Leishmania donovani [3], 3.1% in assay [6] and 0% in the assay on Trypanosoma cruzi [7]. Besides, the inhibition of growth at 4.8 µg/mL was determined as 0% in assay [2], 14.4% in the assay on Trypanosoma cruzi [4], 63.7% in the assay with Leishmania donovani [5] and 20% in the assay on Plasmodium falciparum [8].
Take `CC1Cc2ccccc2N1S(=O)(=O)c1ccccc1[N+](=O)[O-]` (stereo not drawn): the inhibition of growth at 0.8 µg/mL with Plasmodium falciparum [1] stood at 14.8%; with Leishmania donovani [3], 19.3%; in assay [6] it was 6.3%; with Trypanosoma cruzi [7], 0%. The inhibition of growth at 4.8 µg/mL in assay [2] came to 9.6%; with Trypanosoma cruzi [4], 15.1%; with Leishmania donovani [5] it was 52.4%; with Plasmodium falciparum [8] it was 50.5%.
As to `CC(=O)c1ccc(S(=O)(=O)n2nnc3ccccc32)cc1`, the inhibition of growth at 0.8 µg/mL in the assay with Plasmodium falciparum [1] was determined as 0%; in the assay on Leishmania donovani [3], 17.3%; in assay [6] it was 2.8%; in the assay on Trypanosoma cruzi [7] it was 0%. Moreover, the inhibition of growth at 4.8 µg/mL came out at 4.9% in assay [2], 6.1% in the assay with Trypanosoma cruzi [4], 41.6% in the assay with Leishmania donovani [5] and 5.6% with Plasmodium falciparum [8].
In the case of `O=[N+]([O-])c1ccccc1S(=O)(=O)N1CCc2ccccc21`, the inhibition of growth at 0.8 µg/mL in the assay with Plasmodium falciparum [1] is 4%; with Leishmania donovani [3], 4%; in assay [6], 10.4%; in the assay on Trypanosoma cruzi [7], 0%. Further, the inhibition of growth at 4.8 µg/mL in assay [2] was determined as 17.9%; in the assay with Trypanosoma cruzi [4], 24.5%; in the assay on Leishmania donovani [5], 81.5%; in the assay on Plasmodium falciparum [8], 48%.
Consider `O=S(=O)(c1cccc(C(F)(F)F)c1)n1ccc2ccccc21`, for which the inhibition of growth at 0.8 µg/mL stood at 5% in the assay on Plasmodium falciparum [1], 11.7% in the assay with Leishmania donovani [3], 0% in assay [6] and 0% in the assay with Trypanosoma cruzi [7]. Moreover, the inhibition of growth at 4.8 µg/mL in assay [2] was determined as 0%; in the assay on Trypanosoma cruzi [4], 3.3%; in the assay with Leishmania donovani [5] it was 45.7%; in the assay with Plasmodium falciparum [8], 61.1%.
Consider `O=S(=O)(c1ccc(Br)cc1)n1ccc2ccccc21`, for which the inhibition of growth at 0.8 µg/mL was 0% in the assay on Plasmodium falciparum [1], 11.5% in the assay with Leishmania donovani [3], 0% in assay [6] and 0% with Trypanosoma cruzi [7]. Besides, the inhibition of growth at 4.8 µg/mL was determined as 0% in assay [2], 0% with Trypanosoma cruzi [4], 48.1% with Leishmania donovani [5] and 45.9% with Plasmodium falciparum [8].
Take `O=[N+]([O-])c1cccc(S(=O)(=O)n2ccc3ccccc32)c1`: the inhibition of growth at 0.8 µg/mL turned out to be 8% in the assay on Plasmodium falciparum [1], 11.7% with Leishmania donovani [3], 1.9% in assay [6] and 0% with Trypanosoma cruzi [7]. Moreover, the inhibition of growth at 4.8 µg/mL was 3.9% in assay [2], 40.5% in the assay on Trypanosoma cruzi [4], 59.3% in the assay with Leishmania donovani [5] and 68.8% in the assay with Plasmodium falciparum [8].
In the case of `Cc1cc(C)c(C)c(S(=O)(=O)n2nnc3ccccc32)c1C`, the inhibition of growth at 0.8 µg/mL in the assay on Plasmodium falciparum [1] is 0%; in the assay with Leishmania donovani [3], 28.4%; in assay [6] it was 0.7%; with Trypanosoma cruzi [7], 0%. In addition, the inhibition of growth at 4.8 µg/mL turned out to be 4.7% in assay [2], 2.9% with Trypanosoma cruzi [4], 45.6% with Leishmania donovani [5] and 0.1% in the assay with Plasmodium falciparum [8].
Turning to `CC1CCc2ccccc2N1S(=O)(=O)c1ccccc1[N+](=O)[O-]` (stereo not drawn), the inhibition of growth at 0.8 µg/mL in the assay with Plasmodium falciparum [1] came to 8.8%; in the assay on Leishmania donovani [3], 22.4%; in assay [6], 0.4%; with Trypanosoma cruzi [7], 7.6%. The inhibition of growth at 4.8 µg/mL in assay [2] came to 2.7%; in the assay on Trypanosoma cruzi [4], 43.7%; in the assay with Leishmania donovani [5], 66.3%; in the assay on Plasmodium falciparum [8], 67.5%.
For the compound `COc1ccc(S(=O)(=O)N2CCc3ccccc32)cc1`, the inhibition of growth at 0.8 µg/mL was 0% with Plasmodium falciparum [1], 18.6% in the assay with Leishmania donovani [3], 0% in assay [6] and 12.1% in the assay with Trypanosoma cruzi [7]. The inhibition of growth at 4.8 µg/mL in assay [2] was determined as 0%; with Trypanosoma cruzi [4] it was 27.4%; with Leishmania donovani [5], 42.6%; with Plasmodium falciparum [8], 11.6%.
As to `O=S(=O)(c1ccc(Cl)cc1)N1CCc2ccccc21`, the inhibition of growth at 0.8 µg/mL was 3.7% with Plasmodium falciparum [1], 6.9% in the assay on Leishmania donovani [3], 0% in assay [6] and 0% with Trypanosoma cruzi [7]. Moreover, the inhibition of growth at 4.8 µg/mL in assay [2] worked out at 0%; in the assay on Trypanosoma cruzi [4], 1.5%; in the assay on Leishmania donovani [5] it was 73.6%; in the assay on Plasmodium falciparum [8], 63.7%.
Take `O=[N+]([O-])c1ccccc1S(=O)(=O)N1CCc2ccccc2C1`: the inhibition of growth at 0.8 µg/mL with Plasmodium falciparum [1] was determined as 0%; in the assay with Leishmania donovani [3], 17.8%; in assay [6], 10.8%; with Trypanosoma cruzi [7], 3.1%. Besides, the inhibition of growth at 4.8 µg/mL in assay [2] worked out at 6.9%; in the assay with Trypanosoma cruzi [4] it was 27.5%; in the assay on Leishmania donovani [5], 57%; in the assay on Plasmodium falciparum [8] it was 19.8%.
With `CC(=O)c1ccc(S(=O)(=O)N2c3ccccc3CC2C)cc1` (stereo not drawn), the inhibition of growth at 0.8 µg/mL with Plasmodium falciparum [1] is 7.3%; in the assay with Leishmania donovani [3], 0%; in assay [6], 0%; in the assay on Trypanosoma cruzi [7] it was 0%. Besides, the inhibition of growth at 4.8 µg/mL in assay [2] was determined as 0.4%; with Trypanosoma cruzi [4], 23.7%; in the assay with Leishmania donovani [5], 26.8%; with Plasmodium falciparum [8] it was 46.3%.

The values are drawn from ChEMBL document CHEMBL4043153, “Lead selection of antiparasitic compounds from a focused library of benzenesulfonyl derivatives of heterocycles” (Bioorg Med Chem Lett, 2017).
